Measured values reported in patent publication US10150773B2, “N-substituted 8-[(2,6-difluorobenzyl)oxy]-2,6- dimethylimidazo[1,2-a]pyrazin-3-carboxamide derivatives as stimulators of soluble guanylate cyclase (SGC) for the treatment of cardiovascular diseases” (Bayer Pharma Aktiengesellschaft, priority 2015, dated 2018).

system: recombinant guanylate cyclase reporter cell line; assay: Effect on a recombinant guanylate cyclase reporter cell line; type: cell-based; conditions: in some cases mean values from individual determinations
Method: B-2. Effect on a Recombinant Guanylate Cyclase Reporter Cell Line
The cellular activity of the compounds according to the invention is determined using a recombinant guanylate cyclase reporter cell line, as described in F. Wunder et al., Anal. Biochem. 339, 104-112 (2005).
Representative MEC values (MEC=minimum effective concentration) for the compounds of the invention are shown in the table below (in some cases as mean values from individual determinations): […]

| Structure (SMILES) | MEC (minimum effective concentration) [µM] |
| --- | --- |
| Cc1cn2c(C(=O)NC(C)(CO)c3nnn(C(F)F)n3)c(C)nc2c(OCc2c(F)cccc2F)n1 (racemic) [Example 2, rac-8-[(2,6-Difluorobenzyl)oxy]-N-{2-[2-(difluoromethyl)-2H-tetrazol-5-yl]-1-hydroxypropan-2-yl}-2,6-dimethylimidazo[1,2-a]pyrazine-3-carboxamide] | 0.10 |
| [2H]C([2H])([2H])CC(C)(N)CNC(=O)c1c(C)nc2c(OCc3c(F)cccc3F)nc(C)cn12 (single isomer, unassigned; enantiomer a) [Example 3, ent-N-[2-Amino-2-methyl(4,4,4-^2H3)butyl]-8-[(2,6-difluorobenzyl)oxy]-2,6-dimethylimidazo[1,2-a]pyrazine-3-carboxamide (Enantiomer A)] | 0.65 |
| Cc1cn2c(C(=O)NCC(C)(N)CC[Si](C)(C)C)c(C)nc2c(OCc2c(F)cccc2F)n1 (single isomer, unassigned; enantiomer a) [Example 4, ent-N-[2-Amino-2-methyl-4-(trimethylsilyl)butyl]-8-[(2,6-difluorobenzyl)oxy]-2,6-dimethylimidazo[1,2-a]pyrazine-3-carboxamide (Enantiomer A)] | 1.0 |
| Cc1cn2c(C(=O)NCC(C)(N)CC[Si](C)(C)C)c(C)nc2c(OCc2c(F)cccc2F)n1 (single isomer, unassigned; enantiomer b) [Example 5, ent-N-[2-Amino-2-methyl-4-(trimethylsilyl)butyl]-8-[(2,6-difluorobenzyl)oxy]-2,6-dimethylimidazo[1,2-a]pyrazine-3-carboxamide (Enantiomer B)] | 1.0 |
| Cc1cn2c(C(=O)N[C@@](C)(CO)c3nnc(C)s3)c(C)nc2c(OCc2c(F)cccc2F)n1 [Example 1, ent-8-[(2,6-Difluorobenzyl)oxy]-N-[(2S)-1-hydroxy-2-(5-methyl-1,3,4-thiadiazol-2-yl)propan-2-yl]-2,6-dimethylimidazo[1,2-a]pyrazine-3-carboxamide] | 0.65 |
